These compounds were tested against human GLP-1 receptor (Homo sapiens (Human), UniProt P43220). Settings: read-out: Mean EC50; cAMP, HTRF detection, 30 min at 37° C., HEK-293 cells expressing cloned human GLP-1 receptor.
Chain of human GLP-1 receptor (P43220 24-463): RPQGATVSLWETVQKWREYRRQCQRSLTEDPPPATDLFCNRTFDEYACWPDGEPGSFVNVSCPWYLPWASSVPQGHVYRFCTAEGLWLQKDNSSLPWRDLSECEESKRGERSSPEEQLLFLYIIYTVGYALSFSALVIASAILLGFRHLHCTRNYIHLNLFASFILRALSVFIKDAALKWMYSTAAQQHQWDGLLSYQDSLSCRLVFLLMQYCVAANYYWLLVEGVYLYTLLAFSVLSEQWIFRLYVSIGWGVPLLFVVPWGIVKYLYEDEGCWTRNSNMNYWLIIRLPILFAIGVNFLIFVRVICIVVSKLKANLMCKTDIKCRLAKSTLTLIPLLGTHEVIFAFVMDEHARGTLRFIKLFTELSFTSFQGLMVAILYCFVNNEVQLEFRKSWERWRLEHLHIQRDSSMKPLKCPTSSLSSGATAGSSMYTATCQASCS

EC50 [nM]	SMILES
843	N#Cc1ccc(-c2ccc(C[C@H](NC(=O)[C@@H]3Cc4cc5c(cc4CN3C(=O)c3ccoc3)OC(c3ccc(OCc4ccc(Cl)c(Cl)c4)cc3)CO5)C(=O)O)cc2)cc1 (stereo in doubt) [Example 27, (S)-3-(4′-Cyano-biphenyl-4-yl)-2-{[(S)-3-[4-(3,4-dichloro-benzyloxy)-phenyl]-7-(furan-3-carbonyl)-2,3,6,7,8,9-hexahydro-[1,4]dioxino[2,3-g]isoquinoline-8-carbonyl]-amino}-propionic acid]
310	Cn1ccnc1CN1Cc2cc3c(cc2C[C@H]1C(=O)N[C@@H](Cc1ccc(-c2ccc(C#N)cc2)cc1)C(=O)O)OCC(c1ccc(OCc2ccc(Cl)c(Cl)c2)cc1)O3 (stereo in doubt) [Example 40, (S)-3-(4′-Cyano-biphenyl-4-yl)-2-{[(S)-3-[4-(3,4-dichloro-benzyloxy)-phenyl]-7-(1-methyl-1H-imidazol-2-ylmethyl)-2,3,6,7,8,9-hexahydro-[1,4]dioxino[2,3-g]isoquinoline-8-carbonyl]-amino}-propionic acid]
380	CC(=O)N1CC(c2ccc(OCc3ccc(Cl)c(Cl)c3)cc2)Oc2cc3c(cc21)C[C@@H](C(=O)N[C@@H](Cc1ccc(-c2ccc(C#N)cc2)cc1)C(=O)O)N(C(=O)c1ccccc1)C3 (stereo in doubt) [Example 53, (S)-2-({(S)-1-Acetyl-6-benzoyl-3-[4-(3,4-dichloro-benzyloxy)-phenyl]-2,3,5,6,7,8-hexahydro-1H-4-oxa-1,6-diaza-anthracene-7-carbonyl}-amino)-3-(4′-cyano-biphenyl-4-yl)-propionic acid]
360	Cc1nc(NC(=O)C2CCC2)sc1S(=O)(=O)N1Cc2cc3c(cc2C[C@H]1C(=O)N[C@@H](Cc1ccc(-c2ccc(C#N)cc2)cc1)C(=O)O)OCC(c1ccc(OCc2ccc(Cl)c(Cl)c2)cc1)O3 (stereo in doubt) [Example 55, (S)-3-(4′-Cyano-biphenyl-4-yl)-2-({(S)-7-[2-(cyclobutanecarbonyl-amino)-4-methyl-thiazole-5-sulfonyl]-3-[4-(3,4-dichloro-benzyloxy)-phenyl]-2,3,6,7,8,9-hexahydro[1,4]dioxino[2,3-g]isoquinoline-8-carbonyl}-amino)-propionic acid]
277	CCNc1nc(C)c(S(=O)(=O)N2Cc3cc4c(cc3C[C@H]2C(=O)N[C@@H](Cc2ccc(-c3ccc(C#N)cc3)cc2)C(=O)O)OCC(c2ccc(OCc3ccc(C)c(Cl)c3)cc2)O4)s1 (stereo in doubt) [Example 63, (S)-2-{[(S)-3-[4-(3-Chloro-4-methyl-benzyloxy)-phenyl]-7-(2-ethylamino-4-methyl-thiazole-5-sulfonyl)-2,3,6,7,8,9-hexahydro-[1,4]dioxino[2,3-g]isoquinoline-8-carbonyl]-amino}-3-(4′-cyano-biphenyl-4-yl)-propionic acid]
259	Cc1nc(NC(=O)C(F)(F)F)sc1S(=O)(=O)N1Cc2cc3c(cc2C[C@H]1C(=O)N[C@@H](Cc1ccc(-c2ccc(C#N)cc2)cc1)C(=O)O)OCC(c1ccc(OCc2ccc(Cl)c(Cl)c2)cc1)O3 (stereo in doubt) [Example 70, (S)-3-(4′-Cyano-biphenyl-4-yl)-2-({(S)-3-[4-(3,4-dichloro-benzyloxy)-phenyl]-7-[4-methyl-2-(2,2,2-trifluoro-acetylamino)-thiazole-5-sulfonyl]-2,3,6,7,8,9-hexahydro-[1,4]dioxino[2,3-g]isoquinoline-8-carbonyl}-amino)-propionic acid]
462	Cc1sc(N)nc1S(=O)(=O)N1Cc2cc3c(cc2C[C@H]1C(=O)N[C@@H](Cc1ccc(-c2ccc(C#N)cc2)cc1)C(=O)O)OCC(c1ccc(OCc2ccc(Cl)c(Cl)c2)cc1)O3 (stereo in doubt) [Example 95, (S)-2-({(S)-7-(2-Amino-5-methyl-thiazole-4-sulfonyl)-3-[4-(3,4-dichloro-benzyloxy)-phenyl]-2,3,6,7,8,9-hexahydro-[1,4]dioxino[2,3-g]isoquinoline-8-carbonyl}-amino)-3-(4′-cyano-biphenyl-4-yl)-propionic acid]
185	CCNc1nc(S(=O)(=O)N2Cc3cc4c(cc3C[C@H]2C(=O)N[C@@H](Cc2ccc(-c3ccc(C#N)cc3)cc2)C(=O)O)OCC(c2ccc(OCc3ccc(Cl)c(Cl)c3)cc2)O4)c(C)s1 (stereo in doubt) [Example 96, (S)-3-(4′-Cyano-biphenyl-4-yl)-2-{[(S)-3-[4-(3,4-dichloro-benzyloxy)-phenyl]-7-(2-ethylamino-5-methyl-thiazole-4-sulfonyl)-2,3,6,7,8,9-hexahydro-[1,4]dioxino[2,3-g]isoquinoline-8-carbonyl]-amino}-propionic acid]
321	Cc1nc(NCC2CCC2)sc1S(=O)(=O)N1Cc2cc3c(cc2C[C@H]1C(=O)N[C@@H](Cc1ccc(-c2ccc(C#N)cc2)cc1)C(=O)O)OCC(c1ccc(OCc2ccc(Cl)c(Cl)c2)cc1)O3 (stereo in doubt) [Example 105, (S)-3-(4′-Cyano-biphenyl-4-yl)-2-({(S)-7-[2-(cyclobutylmethyl-amino)-4-methyl-thiazole-5-sulfonyl]-3-[4-(3,4-dichloro-benzyloxy)-phenyl]-2,3,6,7,8,9-hexahydro-[1,4]dioxino[2,3-g]isoquinoline-8-carbonyl}-amino)-propionic acid]
298	CCCCNc1nc(C)c(S(=O)(=O)N2Cc3cc4c(cc3C[C@H]2C(=O)N[C@@H](Cc2ccc(-c3ccc(C#N)cc3)cc2)C(=O)O)OCC(c2ccc(OCc3ccc(Cl)c(Cl)c3)cc2)O4)s1 (stereo in doubt) [Example 109, (S)-2-({(S)-7-(2-Butylamino-4-methyl-thiazole-5-sulfonyl)-3-[4-(3,4-dichloro-benzyloxy)-phenyl]-2,3,6,7,8,9-hexahydro-[1,4]dioxino[2,3-g]isoquinoline-8-carbonyl}-amino)-3-(4′-cyano-biphenyl-4-yl)-propionic acid]
356	Cc1nc(NCCC(C)C)sc1S(=O)(=O)N1Cc2cc3c(cc2C[C@H]1C(=O)N[C@@H](Cc1ccc(-c2ccc(C#N)cc2)cc1)C(=O)O)OCC(c1ccc(OCc2ccc(Cl)c(Cl)c2)cc1)O3 (stereo in doubt) [Example 110, (S)-3-(4′-Cyano-biphenyl-4-yl)-2-({(S)-3-[4-(3,4-dichloro-benzyloxy)-phenyl]-7-[4-methyl-2-(3-methyl-butylamino)-thiazole-5-sulfonyl]-2,3,6,7,8,9-hexahydro-[1,4]dioxino[2,3-g]isoquinoline-8-carbonyl}-amino)-propionic acid]
44	CC(=O)Nc1ccc(S(=O)(=O)N2Cc3cc4c(cc3C[C@H]2C(=O)N[C@@H](Cc2ccc(-c3ccc(C#N)cc3)cc2)C(=O)O)OCC(c2ccc(OCc3ccc(Cl)c(Cl)c3)cc2)O4)c(C)c1 (stereo in doubt) [Example 111, (S)-2-({(S)-7-(4-Acetylamino-2-methyl-benzenesulfonyl)-3-[4-(3,4-dichloro-benzyloxy)-phenyl]-2,3,6,7,8,9-hexahydro-[1,4]dioxino[2,3-g]isoquinoline-8-carbonyl}-amino)-3-(4′-cyano-biphenyl-4-yl)-propionic acid]
48	N#Cc1ccc(-c2ccc(C[C@H](NC(=O)[C@@H]3Cc4cc5c(cc4CN3S(=O)(=O)c3ccc(N4CCOCC4)nc3)OC(c3ccc(OCc4ccc(Cl)c(Cl)c4)cc3)CO5)C(=O)O)cc2)cc1 (stereo in doubt) [Example 112, (S)-3-(4′-Cyano-biphenyl-4-yl)-2-{[(S)-3-[4-(3,4-dichloro-benzyloxy)-phenyl]-7-(6-morpholin-4-yl-pyridine-3-sulfonyl)-2,3,6,7,8,9-hexahydro-[1,4]dioxino[2,3-g]isoquinoline-8-carbonyl]-amino}-propionic acid]
232	Cc1nc(NC(=O)C(C)C)sc1S(=O)(=O)N1Cc2cc3c(cc2C[C@H]1C(=O)N[C@@H](Cc1ccc(-c2ccc(C#N)cc2)cc1)C(=O)O)OCC(c1ccc(OCc2ccc(Cl)c(Cl)c2)cc1)O3 (stereo in doubt) [Example 114, (S)-3-(4′-Cyano-biphenyl-4-yl)-2-{[(S)-3-[4-(3,4-dichloro-benzyloxy)-phenyl]-7-(2-isobutyrylamino-4-methyl-thiazole-5-sulfonyl)-2,3,6,7,8,9-hexahydro-[1,4]dioxino[2,3-g]isoquinoline-8-carbonyl]-amino}-propionic acid]
163	CC(=O)Nc1ccc(S(=O)(=O)N2Cc3cc4c(cc3C[C@H]2C(=O)N[C@@H](Cc2ccc(-c3ccc(C#N)cc3)cc2)C(=O)O)OCC(c2ccc(OCc3ccc(Cl)c(Cl)c3)cc2)O4)cc1 (stereo in doubt) [Example 115, (S)-2-({(S)-7-(4-Acetylamino-benzenesulfonyl)-3-[4-(3,4-dichloro-benzyloxy)-phenyl]-2,3,6,7,8,9-hexahydro-[1,4]dioxino[2,3-g]isoquinoline-8-carbonyl}-amino)-3-(4′-cyano-biphenyl-4-yl)-propionic acid]
312	Cc1nc(N)sc1C(=O)N1Cc2cc3c(cc2C[C@H]1C(=O)N[C@@H](Cc1ccc(-c2ccc(C#N)cc2)cc1)C(=O)O)OCC(c1ccc(OCc2ccc(Cl)c(Cl)c2)cc1)O3 (stereo in doubt) [Example 126, (S)-2-({(S)-7-(2-Amino-4-methyl-thiazole-5-carbonyl)-3-[4-(3,4-dichloro-benzyloxy)-phenyl]-2,3,6,7,8,9-hexahydro-[1,4]dioxino[2,3-g]isoquinoline-8-carbonyl}-amino)-3-(4′-cyano-biphenyl-4-yl)-propionic acid]
178	Cc1noc(C)c1S(=O)(=O)N1Cc2cc3c(cc2C[C@H]1C(=O)N[C@@H](Cc1ccc(-c2ccc(C#N)cc2)cc1)C(=O)O)OCC(c1ccc(OCc2ccc(Cl)c(Cl)c2)cc1)O3 (stereo in doubt) [Example 128, (S)-3-(4′-Cyano-biphenyl-4-yl)-2-{[(S)-3-[4-(3,4-dichloro-benzyloxy)-phenyl]-7-(3,5-dimethyl-isoxazole-4-sulfonyl)-2,3,6,7,8,9-hexahydro-[1,4]dioxino[2,3-g]isoquinoline-8-carbonyl]-amino}-propionic acid]
